Measurements as given in patent EP0791056B1, “LIPID-CLEAVAGE ENZYME COMPLEX” (priority 1994, dated 1996).

Test system: Phosphodiesterase aus Schlangengift
Assay: Enzymatic cleavage of AZT-DMDOPE, detection of cleavage products by thin-layer chromatography
Assay type: biochemical
Settings: 10 mg AZT-DMDOPE in 0,1 M Tris, 0,5 mg enzyme, 15 h + 6 h at 37 °C

**Q.** With `CCCCCCCCCCCCSCC(COP(=O)(O)OC[C@H]1O[C@@H](n2cc(C)c(=O)[nH]c2=O)C[C@@H]1N=[N+]=[N-])OCCCCCCCCCC` (stereo partly shown) [AZT-DMDOPE, (3'-Desoxy-3'-azidothymidin)-5'-phosphorsäure-(3-dodecyl-mercapto-2-decyloxy)-propylester] as the compound, how does the “Fluoreszenzauslöschung DC” value read?
**A.** negativ
